Converted amounts (≈) assume the structure as drawn. Read-outs that look alike come from different tables or passages of the source.
What was measured:
B. anthracis Sterne [1] = experiment: microbe, parasite or virus in culture; format: cell-based, Bacillus anthracis; conditions: for MIC: Bacillus anthracis, read-out: MIC B. anthracis Sterne
B anthracis DHFR = B anthracis DHFR (Bacillus anthracis, UniProt Q81R22); experiment: biochemical; conditions: Ki ± SEM B anthracis DHFR
B. anthracis Sterne [2] = conditions: cited from earlier work

Chain of B anthracis DHFR (Q81R22 1-162): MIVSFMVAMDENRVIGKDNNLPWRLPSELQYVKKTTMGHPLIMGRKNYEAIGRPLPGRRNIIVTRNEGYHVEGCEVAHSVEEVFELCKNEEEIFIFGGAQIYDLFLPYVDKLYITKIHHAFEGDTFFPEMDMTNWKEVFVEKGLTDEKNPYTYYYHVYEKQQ

CCOc1cc(Cc2cnc(N)nc2N)cc(/C=C/C(=O)N2N=Cc3ccccc3C2C=C(C)C)c1OCC (racemic) [Compound 19b, (±)-(E)-3-{5-[(2,4-Diamino-5-pyrimidinyl)methyl]-2,3-diethoxyphenyl}-1-(1-isobutenyl-2(1H)-phthalazinyl)-2-propen-1-one]
MIC (B. anthracis Sterne [1]): 1 to 2 µg/mL (≈ 1.9 to 3.8 µM)

CCCC1c2ccccc2C=NN1C(=O)/C=C/c1cc(Cc2cnc(N)nc2N)cc(OC(=O)c2ccccc2)c1OC (racemic) [Compound 29, (±)-(E)-5-[(2,4-Diamino-5-pyrimidinyl)methyl]-2-methoxy-3-[3-oxo-3-(1-propyl-2(1H)-phthalazinyl)-1-propen-1-yl]phenyl benzoate]
MIC B. anthracis Sterne (B. anthracis Sterne [1]): 4 to 16 µg/mL
MIC (B. anthracis Sterne [1]): 2 to 16 µg/mL (≈ 3.47 to 27.7 µM)

CCCC1c2ccccc2C=NN1C(=O)/C=C/c1cc(Cc2cnc(N)nc2N)cc(OCc2ccc(C(F)(F)F)cc2)c1OC (racemic) [Compound 34, (±)-(E)-3-{5-[(2,4-Diamino-5-pyrimidinyl)methyl]-2-methoxy-3-[(4-(trifluoromethyl)benzyl)oxy]phenyl}-1-(1-propyl-2(1H)-phthalazinyl)-2-propen-1-one]
Ki (B anthracis DHFR): > 2.2 µM

COc1cc(Cc2cnc(N)nc2N)cc(OC)c1OC [TMP, Trimethoprim]
MIC B. anthracis Sterne (B. anthracis Sterne [2]): > 2048 µg/mL

From publication PMC4278362 (Bioorganic & medicinal chemistry, 2014)
